For assay [1], the system named is hBMP-6 mRNA. Briefly: Real-time PCR of hBMP-6 mRNA with or without Actinomycin D. It is filed as cell-based, human. Conditions: for hBMP-6 mRNA expression: treated with E2, p<0.05. The text has this:
In order to determine whether estrogen regulates hBMP-6 at the level of transcription, we conducted Real-time PCR assays measuring hBMP-6 mRNA expression in cells pulse-chase treated with or without Actinomycin D, which inhibits […] (FIG. 8).
In general terms: Quantitative PCR measures a nucleic acid by following its amplification.

For another assay, the system named is hBMP-6 promoter. Description: hBMP-6 promoter-Luc reporter in C3H10T1/2 cells. It is filed as cell-based, mouse. The settings on record: 10^−8 M E2, 24 hours.
Assay [2] deals with hBMP-6 mRNA. Briefly: Real Time RT-PCR of hBMP-6 mRNA in engineered hMSCs. Type of assay: cell-based, human. Conditions: 10^−7 M E2, 24 hours. As for the experimental part: (§1) hMSCs were infected in vitro at 80% confluence with Ad5-CMV-ERα, Ad5-CMV-ERβ and Ad5-CMV-LacZ at 100 pfu/cell, for 1 hour in serum-free DMEM after which DMEM supplemented with 10% FCS was added, as previously described (Bodine et al., 1997 and 1999). Efficiency of infection was estimated via β-gal activity determination, utilizing the Galacto-Light Chemiluminescent Reporter Assay System Kit (Tropix of PE Biosystems, USA). […] Five experiments, each in triplicate were conducted, standard error is represented.

Assay [3] relates to hBMP-6 mRNA. Briefly: RT-PCR of hBMP-6 mRNA in engineered hMSCs (qualitative). It is filed as cell-based, human. The settings on record: E2 10^−7 M, 24 hours. As for the experimental part:
H MSCs were infected with 100 pfu/cell adeno-LacZ, adeno-ER-α or adeno-ER-β.
RNA was isolated utilizing the TRIzol Reagent (Life Technologies, USA), according to manufacturer's protocol. RT-PCR was performed as described previously (Zhou et al., 2001). Forward and reverse primers for human ERα were: 5′-[…]-3′ (SEQ ID NO:6) and 5′-[…]-3′ (SEQ ID NO:7), respectively, and were designed according to the human ERα sequence (Green et al., 1986). Forward and reverse primers for human ERβ were: 5′-[…]-3′ (SEQ ID NO:8), and 5′-[…]-3′ (SEQ ID NO:9), respectively, designed according to human ERβ sequence (Moore et al., 1998). Primers for the hBMP-6 (458 bp) (Rickard et al., 1998), and internal control RPL19 (190 bp) (Orly et al., 1994) sequences were as described previously.
PCR conditions used for hERα and hERβ amplification were as follows: 30 cycles at 94° C. for 1 minute, 60° C. for 1 minute and 72° C. for 2 minute. Conditions used for hBMP-6 reverse transcription and PCR amplification were: incubation with RT, followed by 30 cycles of 94° C. for 1 minute, 55° C. for 1 minute and 72° C. for 2 minute in an MJ MiniCycler (MJ Research, USA). RT-PCR products of hBMP-6 were cloned into pGEM-T Easy vector (A1360, Promega), which following sequencing confirmed that the RT-PCR product was the hBMP-6 sequence.

Assay [4] concerns the target T1, ERβ (Homo sapiens, UniProt Q92731). Briefly: ERE-tk-luciferase reporter in hMSCs infected with adeno-ERβ. It is filed as cell-based. Further details: expressed in transfected cells; host or cells: human mesenchymal stem cells (hMSCs), adenoviral transduction with Ad5-CMV-ERβ (long form; gift of Women Health Institute, Wyeth). Conditions: hMSCs infected with adeno-ERE-tk-luc, adeno-ERβ and adeno-LacZ; 10^−8 M E2, 24 hours; over vehicle control. For orientation: Reporter assays use an easily measured gene product as a stand-in for the process of interest.

In another assay the test system is estrogen receptors (Ers). The settings on record: hMSCs with ERE-tk-luciferase construct and adeno-lacZ construct; five donors. The method, then: as §1
In assay [5] the target is T1, ERβ. Description: ERE-tk-Luc reporter in C3H10T1/2 cells co-transfected with ERβ. Type of assay: cell-based. On the set-up: expressed in transfected cells. Conditions: mouse C3H10T1/2 cells co-transfected with ERβ; 10^−8 M E2, 24 hours.

“Also recorded” adds a separate entry of the source. *1 amine or outer side, *2 acyl side, *3 side chain or, on linkers, in order; H or OH if unused. Where a SMILES comes first, the peptide text is derived from it. Bridges are numbered along the chain shown (N, C = ends). Roman numbers before positions name the chains, in order. [ ]: non-standard residue; d: D form. Actinocin(9to1) = Cc1c2oc3c(C)ccc(C(=O)[*:1])c3nc-2c(C(=O)[*:2])c(N)c1=O; NMeV = CN[C@H](C(=O)O)C(C)C; Sar = CNCC(=O)O

T1 sequence (Q92731 whole entry): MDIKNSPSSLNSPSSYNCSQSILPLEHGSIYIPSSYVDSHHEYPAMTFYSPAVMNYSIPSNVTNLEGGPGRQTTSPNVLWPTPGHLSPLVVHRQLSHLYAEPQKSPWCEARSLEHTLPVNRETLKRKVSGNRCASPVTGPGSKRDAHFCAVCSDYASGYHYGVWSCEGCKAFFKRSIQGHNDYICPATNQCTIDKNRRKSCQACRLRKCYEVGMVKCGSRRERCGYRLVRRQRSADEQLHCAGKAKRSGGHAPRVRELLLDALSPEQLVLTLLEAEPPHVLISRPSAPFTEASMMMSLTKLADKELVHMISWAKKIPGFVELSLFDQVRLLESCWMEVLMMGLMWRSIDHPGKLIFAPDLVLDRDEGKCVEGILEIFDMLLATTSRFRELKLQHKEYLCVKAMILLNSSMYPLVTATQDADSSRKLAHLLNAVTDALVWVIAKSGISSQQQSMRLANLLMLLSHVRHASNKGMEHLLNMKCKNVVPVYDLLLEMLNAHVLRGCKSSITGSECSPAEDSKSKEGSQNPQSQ

With `Cc1c2oc3c(C)ccc(C(=O)N[C@@H]4C(=O)N[C@H](C(C)C)C(=O)N5CCC[C@H]5C(=O)N(C)CC(=O)N(C)[C@@H](C(C)C)C(=O)O[C@@H]4C)c3nc-2c(C(=O)N[C@@H]2C(=O)N[C@H](C(C)C)C(=O)N3CCC[C@H]3C(=O)N(C)CC(=O)N(C)[C@@H](C(C)C)C(=O)O[C@@H]2C)c(N)c1=O` [Actinomycin D] (I: T[dV]P[Sar][NMeV] / II: T[dV]P[Sar][NMeV]; ester I:1-I:C, II:1-II:C; linker I:N-II:N via Actinocin(9to1)), the “effect of Actinomycin D on up-regulation of hBMP-6 mRNA by E2” value in the assay on hBMP-6 mRNA [1] (hMSCs engineered with ERα or ERβ, pulse-chase treated) was “no statistical difference; also recorded: does not block”.

In the case of `C[C@]12CC[C@@H]3c4ccc(O)cc4CC[C@H]3[C@@H]1CC[C@@H]2O` [E2, 17β-estradiol], the “hBMP-6 promoter-Luc luminescence” value in the assay with hBMP-6 promoter (mouse C3H10T1/2 cells co-transfected with ERα) and in the assay with hBMP-6 promoter (mouse C3H10T1/2 cells co-transfected with ERβ) was “did not result in enhanced luminescence over background levels” in each case. The “increase in hBMP-6 mRNA expression” value is recorded as 3.2 fold with hBMP-6 mRNA [2] (hMSCs infected with Adeno-ERα 100 pfu/cell) and 2.0 fold in the assay on hBMP-6 mRNA [2] (hMSCs infected with Adeno-ERβ 100 pfu/cell). Further, the “stimulation of hBMP-6 mRNA expression” value in the assay on hBMP-6 mRNA [2] (hMSCs infected with Adeno-LacZ) is on record as “not”. In addition, the “hBMP-6 mRNA expression” value with hBMP-6 mRNA [1] (cells transfected with ERα) and in the assay with hBMP-6 mRNA [1] (cells transfected with ERβ) was “significantly increased” throughout. The “hBMP-6 mRNA detection by RT-PCR” value with hBMP-6 mRNA [3] (hMSCs transduced with adeno-ERα 100 pfu/cell) is reported as “qualitatively detectable levels”; in the assay with hBMP-6 mRNA [3] (hMSCs transduced with adeno-ERβ 100 pfu/cell), “qualitatively detectable levels”; in the assay on hBMP-6 mRNA [3] (hMSCs transduced with adeno-LacZ 100 pfu/cell), “did not”. In addition, the “increase in luciferase activity” value on ERβ [4] is listed as 6 fold. For the same compound, the “luciferase activity following E2 treatment” value in the assay with estrogen receptors (Ers) is on record as “failed to produce luciferase activity”. In addition, at ERβ [5], the ERE-tk-Luc luminescence entry is on record as “significant luminescence”.

The values are drawn from patent publication US20090169526A1, “BMP-6 ESTROGEN RESPONSIVE ELEMENT AND METHODS OF USE THEREOF” (Wyeth, priority 2004, published 2009).
